Test results from patent US10126289B2, “Multimodality CMOS sensor array for physiological characterization of cells” (Georgia Tech Research Corporation, priority 2015, dated 2018).

Legend:
[1] = system: human ovarian cancer cells (HeyA8-F8); settings: 200 μg/mL luciferin at T=0; VPD 0.4V
Experimental: Ovarian Cancer Cells. For culturing the ovarian cancer cells (HeyA8-F8), the CMOS chip surface is sterilized by 70% ethanol and then washed three times with sterile Phosphate Buffered Saline (PBS). To increase cell adhesion to the chip surface, 0.1% gelatin is added onto the chip for 30 minutes before being aspirated. […] Ovarian cancer cells are then seeded directly onto the CMOS chip and allowed to attach before adding 1 mL of cell culture media.
The human ovarian cancer cells (HeyA8-F8) can constitutively express firefly luciferase. […] The bioluminescence information can be used to verify the viability of the HeyA8-F8 cancer cells and can be further extended to other bioluminescence cell-based assays.
Since the intensity of the bioluminescence light is generally weak, the background noise, such as the photodiode dark current, should be suppressed and calibrated. […] Moreover, dark current in each sensing pixel is recorded before the measurement and then subtracted after the bioluminescence recoding.
The CMOS sensor chip starts data recording after a 130-second setup time. During the optical detection, the photodiode reset pulse width is 1 second and the repetition rate is 0.05 Hz. Thus, each photo current integration window is 19 seconds, and the optical detection data is refreshed every 20 seconds. […]

[2] = system: human ovarian cancer cells (HeyA8-F8); settings: general statement; depends on number of cells and luciferin concentration; cited from earlier work
[3] = system: human cardiomyocytes; experiment: Joint-modality cardiac drug screening: extracellular voltage recording of cardiomyocyte beating on CMOS sensor chip; assay type: cell-based; settings: 10 nM isoproterenol in culture medium
Experimental: (§1) Human Cardiomyocytes. Human ESCs are first cultured in a monolayer until confluence. Next, cardiomyocytes are directly differentiated through the use of small molecules Gsk3 inhibitor and Wnt inhibitor for 14 days. Finally, the CMOS chip is sterilized using 70% ethanol and coated with a Matrigel matrix as a protein mixture layer to enhance cell culture and attachment. Cardiomyocytes are then seeded onto the CMOS chips as either single cells or aggregated cardiospheres.
(§2) On-chip cultured human cardiomyocytes was used in this experiment. Their autonomous beating is captured by the extracellular voltage recording, and the beating rate is used to characterize the potency of the cardiac drugs. Isoproterenol, a small molecule cardiac drug, is used in this example. Isoproterenol has its known drug effect of activating the β1-receptors on the cardiac cells and increasing the cardiac cells beating rate. It has been widely used to treat bradycardia and heart block.
(§3) First, the on-chip cardiomyocytes beating spikes were recorded as the extracellular voltage recording in a normal culture medium. The baseline cellular impedance mapping was also measured. Next, 10 nM isoproterenol was directed to the cell culture medium using pipettes, and the cardiomyocytes are real-time monitored with joint-modality measurements. […]

[4] = system: human cardiomyocytes; experiment: Joint-modality cardiac drug screening: real-time cellular impedance sensing (cell attachment); assay type: cell-based; settings: 10 nM isoproterenol; FIG. 20
Experimental: as §1, §2, §3

| SMILES | time at which bioluminescence emission fully decays [1] | time of bioluminescence emission peak after administration [1] | time of luminescence emission peak after administration (in general) [2] | increase of recorded number of cell beating spikes in the 90-second counting window [3] | real-time cardiomyocytes impedance change (cell attachment) [4] |
| --- | --- | --- | --- | --- | --- |
| O=C(O)[C@H]1CSC(c2nc3ccc(O)cc3s2)=N1 [luciferin] | 800 s | around 300 seconds | about 5 minutes | – | – |
| CC(C)NCC(O)c1ccc(O)c(O)c1 (centres unmarked) [isoproterenol, Isoproterenol] | – | – | – | 150% | small decrease |
